Results as given in patent US11912699B2, “Tau-protein targeting compounds and associated” (Arvinas Operations, Inc., priority 2019, dated 2024).
Where two headings read alike, the source gives them in different places.

Molecular target: T1, Tau P301L (Homo sapiens, UniProt P10636, P618L)
T1 construct: expressed in transfected cells
Assay: In vitro tau degradation assay in CHOK1 Tau P301L cells (sarkosyl insoluble tau, WES)
Type: cell-based
Details: CHO-K1, relative to DMSO doxycycline control, read-out: Tau Protein Degradation effect at 1 μM
Summary of the method: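 Sarkosyl-insoluble pellet tau, measured by WES capillary immunoassay (Tau1 antibody), was scored against DMSO doxycycline control as ≤50% or >50% remaining. Cells were CHOK1 clone D1 expressing Tau P301L under doxycycline (1 μg/ml), given 1 μM compound for 48 h with doxycycline withdrawn during the last 24 h.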

[1] = remaining tau protein in sarkosyl insoluble pellet, CHOK1 Tau P301L cells treated 48 hours with test compound at 1 μM, doxycycline removed for the last 24 hours
[2] = CHOK1 Tau P301L cells, remaining tau in sarkosyl insoluble pellet, 48 hours with test compound at 1 μM, doxycycline removed for last 24 hours

T1 sequence (P10636 1-441 isoform P10636-8 P301L): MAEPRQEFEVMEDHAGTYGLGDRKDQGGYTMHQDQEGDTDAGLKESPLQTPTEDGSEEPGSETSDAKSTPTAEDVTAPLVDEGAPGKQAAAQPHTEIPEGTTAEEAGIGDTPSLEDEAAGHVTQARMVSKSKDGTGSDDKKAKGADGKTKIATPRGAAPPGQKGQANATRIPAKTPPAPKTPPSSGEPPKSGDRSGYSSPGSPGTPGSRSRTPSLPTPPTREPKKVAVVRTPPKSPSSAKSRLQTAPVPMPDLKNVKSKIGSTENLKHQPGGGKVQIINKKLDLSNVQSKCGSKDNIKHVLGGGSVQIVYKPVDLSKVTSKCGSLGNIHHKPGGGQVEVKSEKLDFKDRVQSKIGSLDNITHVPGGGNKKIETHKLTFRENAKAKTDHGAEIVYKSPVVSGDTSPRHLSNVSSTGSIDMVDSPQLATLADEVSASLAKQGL

SMILES	remaining activity at 1 µM [1]	remaining activity at 1 µM [2]
O=C1CCC(N2C(=O)c3ccc(N4CCN(CCC5CCN(c6ncc(-c7ccc8c9cc(F)cnc9n(C(F)F)c8c7)cc6F)CC5)CC4)cc3C2=O)C(=O)N1 (stereo not shown) [Compound 597, 5-(4-(2-(1-(5-(9-(difluoromethyl)-3-fluoro-9H-pyrido[2,3-b]indol-7-yl)-3-fluoropyridin-2-yl)piperidin-4-yl)ethyl)piperazin-1-yl)-2-(2,6-dioxopiperidin-3-yl)isoindoline-1,3-dione]	< 50%	–
O=C1CCC(N2C(=O)c3ccc(N4CCN(CCC5CCN(c6cc7ccn(-c8cc9cc(F)ccc9cn8)c7cn6)CC5)CC4)cc3C2=O)C(=O)N1 (stereo not shown) [Compound 598, 2-(2,6-dioxopiperidin-3-yl)-5-(4-(2-(1-(1-(6-fluoroisoquinolin-3-yl)-1H-pyrrolo[2,3-c]pyridin-5-yl)piperidin-4-yl)ethyl)piperazin-1-yl)isoindoline-1,3-dione]	< 50%	–
O=C1CCC(N2C(=O)c3ccc(N4CCN(CCC5CC6(C5)CN(c5ccc(-c7ccc8c(c7)[nH]c7ccncc78)cn5)C6)CC4)cc3C2=O)C(=O)N1 (stereo not shown) [Compound 599, 5-(4-(2-(2-(5-(5H-pyrido[4,3-b]indol-7-yl)pyridin-2-yl)-2-azaspiro[3.3]heptan-6-yl)ethyl)piperazin-1-yl)-2-(2,6-dioxopiperidin-3-yl)isoindoline-1,3-dione]	< 50%	–
CC1c2ccc(-c3ccc4c5cnccc5n(C(F)F)c4c3)cc2CCN1CCCCCOc1ccc2c(c1)C(=O)N(C1CCC(=O)NC1=O)C2=O (stereo not shown) [Compound 603, 5-((5-(6-(5-(difluoromethyl)-5H-pyrido[4,3-b]indol-7-yl)-1-methyl-3,4-dihydroisoquinolin-2(1H)-yl)pentyl)oxy)-2-(2,6-dioxopiperidin-3-yl)isoindoline-1,3-dione]	–	> 50%
O=C1CCC(N2C(=O)c3ccc(N4CCC(CN5CCC(O[C@H]6C[C@H](Oc7ccc8c9cnccc9n(C(F)F)c8c7)C6)CC5)CC4)cc3C2=O)C(=O)N1 (stereo partly shown) [Compound 605, 5-(4-((4-((1r,3r)-3-((5-(difluoromethyl)-5H-pyrido[4,3-b]indol-7-yl)oxy)cyclobutoxy)piperidin-1-yl)methyl)piperidin-1-yl)-2-(2,6-dioxopiperidin-3-yl)isoindoline-1,3-dione]	–	< 50%
O=C1CCC(N2Cc3nc(N4CCN(CCC5CCN(c6ncc(-c7ccc8c9cnccc9n(C(F)F)c8c7)cc6F)CC5)CC4)ccc3C2=O)C(=O)N1 (stereo not shown) [Compound 607, 3-(2-(4-(2-(1-(5-(5-(difluoromethyl)-5H-pyrido[4,3-b]indol-7-yl)-3-fluoropyridin-2-yl)piperidin-4-yl)ethyl)piperazin-1-yl)-5-oxo-5,7-dihydro-6H-pyrrolo[3,4-b]pyridin-6-yl)piperidine-2,6-dione]	–	> 50%
O=C1CCC(N2C(=O)c3cc(F)c(N4CCN(CC5CCN(c6ncc(-c7ccc8c9cnccc9n(C(F)F)c8c7)cc6F)CC5)CC4)cc3C2=O)C(=O)N1 (stereo not shown) [Compound 608, 5-(4-((1-(5-(5-(difluoromethyl)-5H-pyrido[4,3-b]indol-7-yl)-3-fluoropyridin-2-yl)piperidin-4-yl)methyl)piperazin-1-yl)-2-(2,6-dioxopiperidin-3-yl)-6-fluoroisoindoline-1,3-dione]	–	> 50%
CC(C)(C1CCN(c2ncc(-c3ccc4c5cnccc5n(C(F)F)c4c3)cc2F)CC1)N1CCN(c2ccc3c(c2)C(=O)N(C2CCC(=O)NC2=O)C3=O)CC1 (stereo not shown) [Compound 609, 5-(4-(2-(1-(5-(5-(difluoromethyl)-5H-pyrido[4,3-b]indol-7-yl)-3-fluoropyridin-2-yl)piperidin-4-yl)propan-2-yl)piperazin-1-yl)-2-(2,6-dioxopiperidin-3-yl)isoindoline-1,3-dione]	–	< 50%
O=C1CCC(N2C(=O)c3ccc(N4CCN(CCOCCN5CCCc6cc(-c7ccc8c9cnccc9n(C(F)F)c8c7)cc(F)c65)CC4)cc3C2=O)C(=O)N1 (stereo not shown) [Compound 611, 5-(4-(2-(2-(6-(5-(difluoromethyl)-5H-pyrido[4,3-b]indol-7-yl)-8-fluoro-3,4-dihydroquinolin-1(2H)-yl)ethoxy)ethyl)piperazin-1-yl)-2-(2,6-dioxopiperidin-3-yl)isoindoline-1,3-dione]	–	< 50%
O=C1CCC(N2C(=O)c3ccc(N4CCN(C5CC6(CCN(c7ncc(-c8ccc9c%10cnccc%10n(C(F)F)c9c8)cc7F)CC6)C5)CC4)cc3C2=O)C(=O)N1 (stereo not shown) [Compound 613, 5-(4-(7-(5-(5-(difluoromethyl)-5H-pyrido[4,3-b]indol-7-yl)-3-fluoropyridin-2-yl)-7-azaspiro[3.5]nonan-2-yl)piperazin-1-yl)-2-(2,6-dioxopiperidin-3-yl)isoindoline-1,3-dione]	–	> 50%
O=C1CCC(N2C(=O)c3ccc(N4CCN(CC5CC6(CCN(c7ncc(-c8ccc9c%10cnccc%10n(C(F)F)c9c8)cc7F)CC6)C5)CC4)cc3C2=O)C(=O)N1 (stereo not shown) [Compound 614, 5-(4-((7-(5-(5-(difluoromethyl)-5H-pyrido[4,3-b]indol-7-yl)-3-fluoropyridin-2-yl)-7-azaspiro[3.5]nonan-2-yl)methyl)piperazin-1-yl)-2-(2,6-dioxopiperidin-3-yl)isindoline-1,3-dione]	–	> 50%
COc1ccc2nc(/C=C/C=C/c3ccc(OCCOCCOc4ccc5c(c4)C(=O)N(C4CCC(=O)NC4=O)C5=O)nc3)sc2c1 (stereo not shown) [Compound 626, 2-(2,6-dioxopiperidin-3-yl)-5-(2-(2-((5-((1E,3E)-4-(6-methoxybenzo[d]thiazol-2-yl)buta-1,3-dien-1-yl)pyridin-2-yl)oxy)ethoxy)ethoxy) isoindoline-1,3-dione]	–	< 50%
COc1ccc2nc(/C=C/C=C/c3ccc(OCCOCCOCCOCCOc4ccc5c(c4)C(=O)N(C4CCC(=O)NC4=O)C5=O)nc3)sc2c1 (stereo not shown) [Compound 628, 2-(2,6-dioxopiperidin-3-yl)-5-(2-(2-(2-(2-((5-((1E,3E)-4-(6-methoxybenzo[d]thiazol-2-yl)buta-1,3-dien-1-yl)pyridin-2-yl)oxy)ethoxy)ethoxy)ethoxy)ethoxy) isoindoline-1,3-dione]	–	< 50%
O=C1CCC(N2C(=O)c3ccc(N4CCN(CCC5CCN(Cc6ncc(-c7ccc8c9cnccc9n(C(F)F)c8c7)cc6F)CC5)CC4)cc3C2=O)C(=O)N1 (stereo not shown) [Compound 632, 5-(4-(2-(1-((5-(5-(difluoromethyl)-5H-pyrido[4,3-b]indol-7-yl)-3-fluoropyridin-2-yl)methyl)piperidin-4-yl)ethyl)piperazin-1-yl)-2-(2,6-dioxopiperidin-3-yl)isoindoline-1,3-dione]	–	< 50%
O=C1CCC(N2C(=O)c3ccc(N4CCC(CCN5CCN(C6CCN(c7ccc8c9cnccc9n(C(F)F)c8c7)CC6)CC5)CC4)cc3C2=O)C(=O)N1 (stereo not shown) [Compound 633, 5-(4-(2-(4-(1-(5-(difluoromethyl)-5H-pyrido[4,3-b]indol-7-yl)piperidin-4-yl)piperazin-1-yl)ethyl)piperidin-1-yl)-2-(2,6-dioxopiperidin-3-yl)isoindoline-1,3-dione]	–	< 50%
CN1CCc2c([nH]c3cc(-c4cnc(N5CCC(CCN6CCN(c7ccc8c(c7)C(=O)N(C7CCC(=O)NC7=O)C8=O)CC6)CC5)c(F)c4)ccc23)C1 (stereo not shown) [Compound 634, 2-(2,6-dioxopiperidin-3-yl)-5-(4-(2-(1-(3-fluoro-5-(2-methyl-2,3,4,9-tetrahydro-1H-pyrido[3,4-b]indol-7-yl)pyridin-2-yl)piperidin-4-yl)ethyl)piperazin-1-yl)isoindoline-1,3-dione]	–	< 50%
